Experimental data taken from ChEMBL document CHEMBL1201862, “PubChem BioAssay data set” (2004).
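Grown in 96-well plates, cells were treated for 48 hours with each compound at five concentrations. Insufficient inhibition: endpoint recorded as highest concentration tested. Here, GI50 denotes the concentration required for 50% inhibition of growth.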 The source made the active and inactive calls. Cut-off read from the data, not from the text of the source: active = GI50 up to about 1.1 µM and inactive = higher.

How the values were obtained:
Experiment in all cases: NCI-60 cell line screen, 48 h
MOLT-4 = system: MOLT-4
SF-295 = system: SF-295
Hs-578T = system: Hs-578T
SN12C = system: SN12C
SK-MEL-28 = system: SK-MEL-28
NCI-H226 = system: NCI-H226
HOP-62 = system: HOP-62
NCI-H23 = system: NCI-H23
SK-OV-3 = system: SK-OV-3
TK-10 = system: TK-10
SNB-19 = system: SNB-19
HOP-92 = system: HOP-92
786-0 = system: 786-0
MDA-MB-231 = system: MDA-MB-231
U-251 = system: U-251
CAKI-1 = system: CAKI-1
OVCAR-3 = system: OVCAR-3
HCT-116 = system: HCT-116
UO-31 = system: UO-31

Measured: GI50

CC(=O)CC(=O)Nc1ccc2ccccc2c1
inactive: MOLT-4 36.7 µM | SF-295 69.7 µM | Hs-578T > 100 µM | SN12C > 100 µM | SK-MEL-28 > 100 µM | NCI-H226 > 100 µM | HOP-62 > 100 µM | NCI-H23 86.9 µM | SK-OV-3 > 100 µM | TK-10 65.8 µM | SNB-19 > 100 µM | HOP-92 > 100 µM | 786-0 > 100 µM | MDA-MB-231 > 100 µM | U-251 > 100 µM | CAKI-1 84.3 µM | OVCAR-3 34.6 µM | HCT-116 > 100 µM

CC1(CCOCc2ccccc2)NC(=O)NC1=O (configuration not stated)
inactive: MOLT-4 > 100 µM | SF-295 > 100 µM | Hs-578T > 100 µM | SN12C > 100 µM | SK-MEL-28 > 100 µM | NCI-H226 > 100 µM | HOP-62 > 100 µM | NCI-H23 > 100 µM | TK-10 > 100 µM | SNB-19 > 100 µM | HOP-92 > 100 µM | UO-31 > 100 µM | 786-0 > 100 µM | MDA-MB-231 > 100 µM | U-251 > 100 µM | CAKI-1 > 100 µM | OVCAR-3 > 100 µM | HCT-116 > 100 µM

Nc1nc(Cl)cc(NCC2(O)CCCC2)n1
inactive: MOLT-4 > 100 µM | SF-295 > 100 µM | Hs-578T > 100 µM | SN12C > 100 µM | SK-MEL-28 > 100 µM | NCI-H226 > 100 µM | HOP-62 > 100 µM | NCI-H23 > 100 µM | SK-OV-3 > 100 µM | TK-10 > 100 µM | HOP-92 > 100 µM | UO-31 78.9 µM | 786-0 > 100 µM | MDA-MB-231 > 100 µM | U-251 > 100 µM | CAKI-1 > 100 µM | OVCAR-3 > 100 µM | HCT-116 > 100 µM

CC(=O)c1c(N=[N+]=[N-])c2cccc3c2n(c1=O)CCC3
inactive: MOLT-4 23.4 µM | SF-295 24.7 µM | Hs-578T 22.9 µM | SN12C 22.1 µM | NCI-H226 22.9 µM | HOP-62 20 µM | NCI-H23 20.8 µM | SK-OV-3 46.7 µM | TK-10 25.4 µM | SNB-19 32.3 µM | HOP-92 31.8 µM | UO-31 30.2 µM | 786-0 14.7 µM | MDA-MB-231 13.9 µM | U-251 17.3 µM | CAKI-1 28.3 µM | OVCAR-3 4.21 µM | HCT-116 15.6 µM

COc1cc(-c2c(C#N)c(N)c(C#N)c3c2COc2ccccc2-3)cc(OC)c1OC
inactive: MOLT-4 > 76.9 µM | SF-295 24.9 µM | Hs-578T 16.4 µM | SN12C 25.9 µM | SK-MEL-28 > 100 µM | NCI-H226 6.92 µM | HOP-62 7.5 µM | NCI-H23 31.6 µM | SK-OV-3 14.6 µM | TK-10 17.6 µM | SNB-19 13.2 µM | HOP-92 16.9 µM | UO-31 > 35.8 µM | 786-0 7.93 µM | MDA-MB-231 15.1 µM | U-251 12.4 µM | CAKI-1 53.1 µM | OVCAR-3 > 42.8 µM | HCT-116 > 49.4 µM

C#CCn1c2c(c3ccccc3c1=O)C(=O)c1ccccc1-2
inactive: MOLT-4 2.83 µM | SF-295 20.2 µM | Hs-578T 15.8 µM | SN12C 11.4 µM | SK-MEL-28 26.6 µM | NCI-H226 16.7 µM | HOP-62 11.9 µM | NCI-H23 11.4 µM | SK-OV-3 27.4 µM | TK-10 19.5 µM | HOP-92 29.9 µM | UO-31 2 µM | 786-0 14 µM | MDA-MB-231 15.2 µM | U-251 15.2 µM | CAKI-1 12 µM | OVCAR-3 14.7 µM | HCT-116 19.6 µM

COc1ccc(/C(=N/OCCCC(=O)O)c2cccs2)cc1
inactive: MOLT-4 > 100 µM | SF-295 > 100 µM | Hs-578T > 100 µM | SN12C > 100 µM | NCI-H226 > 100 µM | HOP-62 > 100 µM | NCI-H23 > 100 µM | SK-OV-3 > 100 µM | TK-10 > 100 µM | SNB-19 > 100 µM | HOP-92 > 100 µM | UO-31 > 100 µM | 786-0 > 100 µM | MDA-MB-231 > 100 µM | U-251 > 100 µM | CAKI-1 > 100 µM | OVCAR-3 > 100 µM | HCT-116 > 100 µM
